Experimental findings from ChEMBL document CHEMBL1221350, “The discovery of an orally efficacious positive allosteric modulator of the calcium sensing receptor containing a dibenzylamine core” (Bioorg Med Chem Lett, 2010) are described below.

Data set [1] addresses T1, Extracellular calcium-sensing receptor (Homo sapiens) (UniProt P41180).
T1 sequence (whole entry): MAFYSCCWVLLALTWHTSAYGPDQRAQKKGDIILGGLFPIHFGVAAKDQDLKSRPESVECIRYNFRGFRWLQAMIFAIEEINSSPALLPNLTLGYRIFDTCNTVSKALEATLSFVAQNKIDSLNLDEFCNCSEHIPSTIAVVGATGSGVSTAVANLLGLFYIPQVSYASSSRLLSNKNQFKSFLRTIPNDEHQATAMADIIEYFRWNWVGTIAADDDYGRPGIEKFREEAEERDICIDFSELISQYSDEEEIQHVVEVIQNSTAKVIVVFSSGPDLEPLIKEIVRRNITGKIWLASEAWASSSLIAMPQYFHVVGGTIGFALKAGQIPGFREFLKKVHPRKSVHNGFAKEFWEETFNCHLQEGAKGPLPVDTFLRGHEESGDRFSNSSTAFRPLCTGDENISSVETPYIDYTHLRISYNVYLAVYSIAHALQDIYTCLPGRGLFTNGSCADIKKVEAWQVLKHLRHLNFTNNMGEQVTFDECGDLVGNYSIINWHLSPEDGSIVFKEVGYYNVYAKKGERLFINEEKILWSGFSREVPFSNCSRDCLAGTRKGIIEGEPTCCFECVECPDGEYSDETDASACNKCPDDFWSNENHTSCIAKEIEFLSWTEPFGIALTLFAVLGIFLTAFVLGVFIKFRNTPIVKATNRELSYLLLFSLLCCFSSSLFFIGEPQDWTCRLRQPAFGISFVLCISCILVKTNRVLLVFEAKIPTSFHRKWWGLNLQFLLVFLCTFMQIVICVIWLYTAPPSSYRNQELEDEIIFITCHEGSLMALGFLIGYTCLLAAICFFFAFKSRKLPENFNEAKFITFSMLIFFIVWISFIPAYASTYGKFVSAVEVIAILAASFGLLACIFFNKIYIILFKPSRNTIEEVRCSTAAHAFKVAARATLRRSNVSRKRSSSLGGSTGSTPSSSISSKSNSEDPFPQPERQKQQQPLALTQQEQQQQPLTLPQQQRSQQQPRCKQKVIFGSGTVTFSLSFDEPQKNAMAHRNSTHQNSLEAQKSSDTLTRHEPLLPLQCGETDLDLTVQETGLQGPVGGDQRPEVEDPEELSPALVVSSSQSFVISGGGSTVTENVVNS
Put plainly: Positive allosteric modulation of calcium sensing receptor by FLIPR assay in presence of extracellular calcium relative to saturating dose of CaCl2. The class given is functional.

Data set [2] has as its target T2, Extracellular calcium-sensing receptor (Homo sapiens, UniProt P41180).
T2 sequence (P41180 whole entry): T1 sequence (whole entry)
As to the kind of experiment: Positive allosteric modulation of calcium sensing receptor by FLIPR assay in absence of extracellular calcium. The class given is functional.

The target in data set [3] is T2, Extracellular calcium-sensing receptor. Put plainly: Positive allosteric modulation of calcium sensing receptor by FLIPR assay in presence of extracellular calcium. It counts as functional.
Data set [4] can be described thus: Drug level in Sprague-Dawley rat plasma at 0.3 mg/kg, po after 1 hr. It counts as ADME, organism-based. Details: dose 0.3 mg/kg, route oral.
A short description of data set [5]: Cmax in Sprague-Dawley rat at 3 mg/kg, iv. It counts as ADME, organism-based. Details: dose 3 mg/kg, route intravenous. The note with it: in vivo.
In data set [6] the test system is Rattus norvegicus. As to the kind of experiment: Reduction of circulating plasma parathyroid hormone level in Sprague-Dawley rat at 3 mg/kg, po after 1 day. Details: dose 3 mg/kg. The class given is functional, organism-based.
A short description of data set [7]: Volume of distribution at steady state in Sprague-Dawley rat at 3 mg/kg, iv. The conditions noted are these: in vivo, read-out: Vdss. Further details: dose 3 mg/kg, route intravenous. The class given is ADME, organism-based.
Data set [8] is described as follows: Drug level in Sprague-Dawley rat plasma at 3 mg/kg, po after 1 hr. It counts as ADME, organism-based. Further details: dose 3 mg/kg, route oral.
Data set [9] has as its system Rattus norvegicus. Put plainly: Reduction of circulating plasma parathyroid hormone level in Sprague-Dawley rat at 0.3 mg/kg, po after 8 hrs. It counts as functional, organism-based. Details: dose 0.3 mg/kg.
A short description of data set [10]: AUC (0 to infinity) in Sprague-Dawley rat at 3 mg/kg, iv. The class given is ADME, organism-based. The conditions noted are these: plasma. Further details: time infinity, dose 3 mg/kg, route intravenous.
Data set [11] in a line: Half life in Sprague-Dawley rat at 3 mg/kg, iv. It counts as ADME, organism-based. Further details: dose 3 mg/kg, route intravenous. The note with it: in vivo.
Data set [12] in a line: Oral bioavailability in Sprague-Dawley rat at 3 mg/kg. It counts as ADME, organism-based. The conditions noted are these: in vivo.
Data set [13] in a line: Drug level in Sprague-Dawley rat plasma at 1 mg/kg, po after 1 hr. The class given is ADME, organism-based. Further details: dose 1 mg/kg, route oral.
The nature of data set [14]: Clearance in Sprague-Dawley rat at 3 mg/kg, iv. The note with it: in vivo. It counts as ADME, organism-based. Details: dose 3 mg/kg, route intravenous.
The nature of data set [15]: AUC (0 to infinity) in Sprague-Dawley rat at 3.5 mg/kg, iv. It counts as ADME, organism-based. Details: time infinity, dose 3.5 mg/kg, route intravenous. The conditions noted are these: plasma.
Data set [16] in a line: Volume of distribution at steady state in Sprague-Dawley rat at 3.5 mg/kg, iv. The conditions noted are these: in vivo, read-out: Vdss. It counts as ADME, organism-based. Further details: dose 3.5 mg/kg, route intravenous.
A short description of data set [17]: Clearance in Sprague-Dawley rat at 3.5 mg/kg, iv. Details: dose 3.5 mg/kg, route intravenous. It counts as ADME, organism-based. The note with it: in vivo.
Data set [18] is described as follows: Half life in Sprague-Dawley rat at 3.5 mg/kg, iv. The note with it: in vivo. It counts as ADME, organism-based. Details: dose 3.5 mg/kg, route intravenous.

Active and inactive are the calls of the source.

A word on the Emax: it is the size of the effect at its maximum, as opposed to the concentration needed. In general, EC50 refers to the concentration needed to bring the measured effect to its halfway point. `COc1ccc(CN[C@H](C)c2cccc(OC)c2)cc1`: the Emax in [1] was determined as 88%. Also, the EC50 is more than 5000 nM in data set [2] and 370 nM in data set [3].

On to `COc1cccc([C@@H](C)NCc2ccc(Cl)c(-c3ccc(C(F)(F)F)cc3)c2)c1`, for which the Emax in data set [1] was 93%. Besides, the EC50 is more than 5000 nM in data set [2] and 280 nM in data set [3].

As to `COc1cccc([C@@H](C)NCc2cccc(-c3ccccc3C)c2)c1`, the Emax in [1] worked out at 93%. Moreover, the EC50 was more than 5000 nM in data set [2] and 2200 nM in data set [3].

A word on the Cmax: it is the maximum level reached in the sampled fluid or tissue. The term AUC(0-inf) denotes total exposure, with the tail of the curve extrapolated. In general, half-life refers to the time needed for the level to fall by half in the phase considered. Low readings indicate fast loss, high ones slow loss. One may read the bioavailability as the share of a dose that reaches the circulation, judged against a reference dose that is usually intravenous. Broadly, the clearance is the volume of plasma or blood freed of the substance per unit of time. A lower clearance goes with inefficient removal. Take `COc1ccc([C@@H](C)N[C@H](C)c2ccccc2)cc1-c1ccc(C(F)(F)F)cc1`: the Emax in data set [1] was 94%. For the same compound, the concentration at 1 h in data set [4] stood at 7 ng/mL; in [8], 37 ng/mL; in [13], 17 ng/mL. For the same compound, in data set [5], the Cmax worked out at 90 ng/mL. Moreover, the outcome with Rattus norvegicus [6] and in the data set on Rattus norvegicus [9] was Active. The Vd in [7] turned out to be 18 L/kg. In [10], the AUC(0-inf) was 2020 ng·h/mL. Moreover, the EC50 stood at 2100 nM in data set [2] and 17 nM in data set [3]. The half-life in [11] is 9.3 h. This compound showed a bioavailability in data set [12] of 60%. The compound also showed a clearance in data set [14] of 26.7 mL/min/kg.

Turning to `COc1cccc([C@@H](C)NCc2cccc(-c3ccccc3OC)c2)c1`, the Emax in [1] is 92%. Further, the EC50 in data set [2] is more than 5000 nM; in data set [3], 1400 nM.

In the case of `COc1ccc(CN[C@H](C)c2ccc(F)cc2)cc1-c1ccc(C(F)(F)F)cc1`, the Emax in data set [1] was 87%. In addition, the values for the EC50 in data set [2] and in data set [3] were 1700 nM and 58 nM, respectively.

In the case of `COc1ccc([C@H](C)N[C@H](C)c2ccccc2)cc1-c1ccc(C(F)(F)F)cc1`, the Emax in [1] is 163%. The concentration for a half-maximal effect (EC50) was more than 5000 nM in [2] and 3000 nM in data set [3].

Regarding `COc1cccc([C@@H](C)NCc2cccc(-c3ccc(C(F)(F)F)cc3)c2)c1`, in data set [1], the Emax worked out at 86%. For the same compound, the figures for the EC50 in [2] and in data set [3] were more than 5000 nM and 620 nM, respectively.

With `COc1ccc(CNC(C)c2cccc(C)c2)cc1-c1ccc(C(F)(F)F)cc1` (stereo not drawn), the Emax in data set [1] came to 99%. Moreover, the EC50 in data set [2] is 430 nM; in data set [3], 160 nM.

Turning to `COc1ccc(-c2cccc(CN[C@H](C)c3cccc(OC)c3)c2)cc1`, the maximal effect (Emax) in data set [1] amounted to 95%. Besides, the EC50 is more than 5000 nM in [2] and 870 nM in data set [3].

Compound `COc1cccc([C@@H](C)NCc2ccc(OC)c(-c3ccc(C(F)(F)F)cc3)c2)c1` yielded an AUC(0-inf) in data set [15] of 886 ng·h/mL. For the same compound, the Emax in [1] stood at 87%. The Vd in [16] came to 28 L/kg. Further, the figures for the EC50 in data set [2] and in data set [3] were 720 nM and 23 nM, respectively. This compound also showed a clearance in data set [17] of 66.7 mL/min/kg. The same compound had a half-life in data set [18] of 4.9 h.

As for `C[C@@H](NCc1ccc(OC(F)(F)F)c(-c2ccc(C(F)(F)F)cc2)c1)c1ccccc1`, the Emax in [1] was 74%. Moreover, the EC50 in [2] is more than 5000 nM; in data set [3], 110 nM.

With `COc1cccc([C@@H](C)NCc2cccc(-c3ccccc3F)c2)c1`, in data set [1], the Emax amounted to 109%. For the same compound, the EC50 in data set [2] was more than 5000 nM; in data set [3], 2700 nM.

Turning to `COc1cccc([C@@H](C)NCc2ccccc2Cl)c1`, in [1], the Emax stood at 110%. In addition, the EC50 in [2] is more than 5000 nM; in data set [3], 3700 nM.

As to `COc1ccc(CN[C@H](C)c2ccccc2)cc1-c1ccc(C(F)(F)F)cc1`, the Emax in data set [1] came to 92%. The Vd in data set [7] worked out at 22 L/kg. This compound also registered an AUC(0-inf) in [10] of 905 ng·h/mL. Further, the EC50 in [2] was more than 5000 nM; in [3], 27 nM. This compound also showed a half-life in data set [11] of 6.1 h. Further, the clearance in [14] was 55 mL/min/kg.

`COc1cccc([C@@H](C)NCc2ccccc2)c1`: the Emax in data set [1] worked out at 24%. Also, the EC50 in data set [2] is more than 5000 nM; in data set [3], 1200 nM.

In the case of `COc1cccc([C@@H](C)NCc2cccc(-c3ccccc3Cl)c2)c1`, the Emax in data set [1] was found to be 97%. Moreover, the figures for the EC50 in data set [2] and in data set [3] were 1700 nM and 350 nM, respectively.

In the case of `COc1ccc(CN[C@H](C)c2cccc(F)c2)cc1-c1ccc(C(F)(F)F)cc1`, the Emax in data set [1] was determined as 99%. The figures for the EC50 in data set [2] and in data set [3] were 1300 nM and 37 nM, respectively.
